From patent US9266895B2, “Substituted pyrazolo[3,4-d]pyrimidines as kinase inhibitors” (PRINCIPIA BIOPHARMA INC., priority 2012, dated 2016)

Molecular target: BTK (Homo sapiens (Human), UniProt Q06187)
Experiment: Reversibility of binding (compound in solution by HPLC-MS/MS before and after target perturbation)
Procedure: The following approach was developed to differentiate compounds that form irreversible covalent bond with their targets, such as non-cyano containing acrylamide compounds, from compound that form reversible covalent bond i.e., compounds and/or pharmaceutically acceptable salts of the present disclosure. […] The reactions were then treated with perturbations including both denaturation with 5 M guanidine hydrochloride and digestion with trypsin, disrupting proper folding of the target. […] The concentration of compound in solution was assessed both preceding and following perturbation using high performance liquid chromatography (HPLC) coupled to tandem mass spectrometry.

BTK, sequence (Q06187 whole entry): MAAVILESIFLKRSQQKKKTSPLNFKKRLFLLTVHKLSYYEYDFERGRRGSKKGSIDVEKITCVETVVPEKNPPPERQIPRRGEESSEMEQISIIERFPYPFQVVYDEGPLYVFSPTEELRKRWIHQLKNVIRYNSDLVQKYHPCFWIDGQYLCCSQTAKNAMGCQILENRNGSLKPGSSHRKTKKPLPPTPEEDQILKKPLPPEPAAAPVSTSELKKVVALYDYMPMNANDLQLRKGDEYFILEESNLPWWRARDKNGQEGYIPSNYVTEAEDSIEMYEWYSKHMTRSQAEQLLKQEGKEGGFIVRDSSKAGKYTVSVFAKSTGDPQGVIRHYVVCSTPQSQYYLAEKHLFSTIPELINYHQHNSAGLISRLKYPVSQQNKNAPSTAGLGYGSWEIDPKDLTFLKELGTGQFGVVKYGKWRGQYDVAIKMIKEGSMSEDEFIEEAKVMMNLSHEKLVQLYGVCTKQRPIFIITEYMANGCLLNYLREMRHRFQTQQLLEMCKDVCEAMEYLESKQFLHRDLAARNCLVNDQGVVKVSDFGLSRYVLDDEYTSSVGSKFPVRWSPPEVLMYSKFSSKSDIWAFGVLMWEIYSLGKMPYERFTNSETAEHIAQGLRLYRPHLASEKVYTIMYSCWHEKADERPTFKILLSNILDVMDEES

CN(C1COC1)C(C)(C)C=C(C#N)C(=O)N1CCC[C@H]1Cn1nc(-c2ccc(Oc3ccccc3)cc2F)c2c(N)ncnc21 [Example 10, 2-[(2S)-2-[[4-amino-3-(2-fluoro-4-phenoxy-phenyl)pyrazolo[3,4-d]pyrimidin-1-yl]methyl]pyrrolidine-1-carbonyl]-4-methyl-4-[methyl(oxetan-3-yl)amino]pent-2-enenitrile]
Compound in solution in the denatured or digested state? (after 5 M guanidine hydrochloride denaturation or trypsin digestion): yes
Compound in solution in the native state? (target in excess, native state): no
